From patent publication US12144864B2, “Tubulysins and protein-tubulysin conjugates” (Regeneron Pharmaceuticals, Inc., priority 2018, dated 2024)
Like-named read-outs stand apart in the source and are kept apart here.

Experiments:
C4-2 cells = experiment: Cell-based killing assay of payloads (CellTiter-Glo), C4-2 cells; design: species or system human; conditions: 5-day incubation; for IC50: Homo sapiens, C4-2, 120 h, average ± SD where replicates; for C4-2 % Kill: at maximum concentration tested (100 − % viable cells)
Method in brief: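 Cells plated at 4000/well in line-specific complete medium, grown overnight, then exposed to 1:3 serial dilutions of payload (100 nM to […]) for 5 days. ATP-based CellTiter-Glo luminescence read; IC50 from four-parameter logistic 10-point fit, and % kill at top concentration as 100 − % viable.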

T47D cells = experiment: Cell-based killing assay of payloads (CellTiter-Glo), T47D cells; design: species or system human; conditions: 5-day incubation; for IC50: Homo sapiens, T47D, 120 h; for T47D % Kill: at maximum concentration tested
Method: (§1) To test the ability of the disclosed tubulysin payloads to kill human cell lines, an in vitro cytotoxicity assay was performed. In vitro cytotoxicity of the disclosed payloads, as well as reference compounds, were evaluated using the CellTiter-Glo Assay Kit (Promega, Cat #G7573), in which the quantity of ATP present is used to determine the number of viable cells in culture. For the assay, C4-2, HEK293, or T47D cells were seeded at 4000 cells/well on Nunclon white 96-well plates in complete growth medium (DME high glucose:Ham's F12 at 4:1, 10% FBS, 100 units/ml Penicillin, 100 ug/ml streptomycin, 53 ug/ml glutatmine, 10 ug/ml insulin, 220 ng/ml biotin, 12.5 pg/ml T3, 12.5 ug/ml Adenine, 4 ug/ml transferrin for C42 cells; DME high glucose, 10% FBS, 100 units/ml Penicillin, 100 ug/ml streptomycin, 53 ug/ml glutatmine for HEK293; RPMI, 10% FBS, 100 units/ml Penicillin, 100 ug/ml streptomycin, 53 ug/ml glutatmine, 10 ug/ml insulin, 10 mM HEPEs, 200 nM Sodium Pyruvate for T47D cells) and grown overnight at 37° C. in 5% CO2. For cell viability curves, 1:3 serially diluted payloads were added to the cells at final concentrations ranging from 100 nM to […], including a no treatment control group, and were then incubated for 5 days. After the 5-day incubation, cells were incubated at room temperature with 100 μL of CellTiter-Glo reagents for 10 minutes. Relative luminescence units (RLU) were determined on a Victor plate reader (PerkinElmer). The IC50 values were determined from a four-parameter logistic equation over a 10-point response curve (GraphPad Prism). All IC50 values are expressed in molar (M) concentration. The percent cell killing (% kill) at the maximum concentration tested was estimated from the following formula (100−% viable cells). Averages±standard deviation (SD) are included where replicate experiments were performed.

HEK293 cells = experiment: Cell-based killing assay of payloads (CellTiter-Glo), HEK293 cells; design: species or system human; conditions: 5-day incubation; for IC50: Homo sapiens, HEK293, 120 h; for HEK293 % Kill: at maximum concentration tested
Method: as §1

HCT15 cells = experiment: cells; type: cell-based, human; conditions: HCT15 cells; for HCT-15 + verapamil % Kill / HCT-15 % Kill: maximum % cell killing
Method in brief: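 HCT15 colorectal carcinoma cells, 1000 per well in RPMI/10% FBS, with or without 5 ug/mL verapamil, exposed to 1:3 serially diluted payloads for 5 days at 37 °C. Viability measured by CellTiter-Glo ATP luminescence; IC50 from four-parameter logistic fit of a 10-point curve, % kill at top concentration.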

HL60/MX2 cells = experiment: Cytotoxicity in panel of MDR cell lines, HL60/MX2 (72 h and 144 h); type: cell-based, human; conditions: for IC50: Homo sapiens
Method in brief: (§2)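 Cells were seeded at 1000 per well and grown overnight, then exposed to 1:3 serially diluted payloads for 72 h and 144 h. CellTiter-Glo reagent was added for 10 min at room temperature, and luminescence was read. IC50 values came from a four-parameter logistic fit.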

MES-SA/MX2 cells = experiment: Cytotoxicity in panel of MDR cell lines, MES-SA/MX2 (72 h and 144 h); type: cell-based, human; conditions: for IC50: Homo sapiens
Method in brief: as §2

HCT-15 cells = experiment: Cytotoxicity in panel of MDR cell lines, HCT-15 (72 h and 144 h); type: cell-based, human; conditions: for IC50: Homo sapiens
Method in brief: as §2

H69AR cells = experiment: Cytotoxicity in panel of MDR cell lines, H69AR (72 h and 144 h); type: cell-based, human; conditions: for IC50: Homo sapiens
Method in brief: as §2

[1] = with 5 ug/mL Verapamil, read-out: HCT-15 + verapamil IC50
[2] = Homo sapiens, HCT-15, without Verapamil, read-out: HCT-15 IC50
[3] = 72 h incubation, read-out: HL60/MX2 IC50 72 h
[4] = 144 h incubation, read-out: HL60/MX2 IC50 144 h
[5] = 72 h incubation, read-out: MES-SA/MX2 IC50 72 h
[6] = 144 h incubation, read-out: MES-SA/MX2 IC50 144 h
[7] = 72 h incubation, read-out: HCT-15 IC50 72 h
[8] = 144 h incubation, read-out: HCT-15 IC50 144 h
[9] = 72 h incubation, read-out: H69AR IC50 72 h
[10] = 144 h incubation, read-out: H69AR IC50 144 h

Row | SMILES | IC50 (C4-2 cells) | C4-2 % Kill (C4-2 cells) | IC50 (T47D cells) | T47D % Kill (T47D cells) | IC50 (HEK293 cells) | HEK293 % Kill (HEK293 cells) | HCT-15 % Kill (HCT15 cells; without Verapamil) | IC50 (HCT15 cells; [2]) | HL60/MX2 % Kill 72 h (HL60/MX2 cells; 72 h incubation) | HL60/MX2 % Kill 144 h (HL60/MX2 cells; 144 h incubation) | IC50 (HL60/MX2 cells; [3]) | IC50 (HL60/MX2 cells; [4]) | MES-SA/MX2 % Kill 72 h (MES-SA/MX2 cells; 72 h incubation) | MES-SA/MX2 % Kill 144 h (MES-SA/MX2 cells; 144 h incubation) | IC50 (MES-SA/MX2 cells; [5]) | IC50 (MES-SA/MX2 cells; [6]) | HCT-15 % Kill 72 h (HCT-15 cells; 72 h incubation) | HCT-15 % Kill 144 h (HCT-15 cells; 144 h incubation) | IC50 (HCT-15 cells; [7]) | IC50 (HCT-15 cells; [8]) | other results
1 | C#CCCCCN(C(=O)[C@@H](NC(=O)[C@H]1CCCCN1C)[C@@H](C)CC)[C@H](C[C@@H](OC(C)=O)c1nc(C(=O)N[C@@H](Cc2ccc(N)cc2)C[C@H](C)C(=O)O)cs1)C(C)C [IVg, (2S,4R)-4-({2-[(1R,3R)-1-(Acetyloxy)-3-[(2S,3S)—N-(hex-5-yn-1-yl)-3-methyl-2-{[(2R)-1-methylpiperidin-2-yl]formamido}pentanamido]-4-methylpentyl]-1,3-thiazol-4-yl}formamido)-5-(4-aminophenyl)-2-methylpentanoic acid] | 0.136 nM | 91.7% | 0.413 nM | 62.9% | 0.539 nM | 86.5% | 97.1% | 0.46 nM | 98.5% | 100% | 0.124 nM | < 0.015 nM | 99.6% | 100% | 0.838 nM | 0.999 nM | 97.6% | 99.5% | 0.17 nM | 0.223 nM | HCT-15 + verapamil % Kill (HCT15 cells; with 5 ug/mL Verapamil): 97.5%; IC50 (HCT15 cells; [1]): 0.328 nM; H69AR % Kill 72 h (H69AR cells; 72 h incubation): 95.7%; H69AR % Kill 144 h (H69AR cells; 144 h incubation): 99.2%; IC50 (H69AR cells; [9]): 0.553 nM; IC50 (H69AR cells; [10]): 0.571 nM
2 | CCCCCON(C(=O)[C@@H](NC(=O)[C@H]1CCCCN1C)[C@@H](C)CC)[C@H](C[C@@H](OC(C)=O)c1nc(C(=O)N[C@@H](Cc2ccc(N)cc2)CC(C)(C)C(=O)O)cs1)C(C)C [Vb, (4S)-4-({2-[(1R,3R)-1-(Acetyloxy)-4-methyl-3-[(2S,3S)-3-methyl-2-{[(2R)-1-methylpiperidin-2-yl]formamido}-N-(pentyloxy)pentanamido]pentyl]-1,3-thiazol-4-yl}formamido)-5-(4-aminophenyl)-2,2-dimethylpentanoic acid] | 0.07 nM | 92.3 ± 1.7% | 0.144 nM | 66.5% | 0.289 nM | 87.8% | 98.8 ± 0.7% | 0.12 nM | 97.9% | 100% | < 0.015 nM | < 0.015 nM | 99.6% | 99.9% | 0.213 nM | 1.04 nM | 97.8% | 99.7% | 0.0623 nM | 0.127 nM | HCT-15 + verapamil % Kill (HCT15 cells; with 5 ug/mL Verapamil): 98.2 ± 0.5%; IC50 (HCT15 cells; [1]): 0.0365 nM; H69AR % Kill 72 h (H69AR cells; 72 h incubation): 97%; H69AR % Kill 144 h (H69AR cells; 144 h incubation): 99.4%; IC50 (H69AR cells; [9]): 0.272 nM; IC50 (H69AR cells; [10]): 0.66 nM
3 | CC[C@H](C)[C@H](NC(=O)[C@H]1CCCCN1C)C(=O)N(CCCCc1cn(C)nn1)[C@H](C[C@@H](OC(C)=O)c1nc(C(=O)N[C@@H](Cc2ccc(N)cc2)CC(C)(C)C(=O)O)cs1)C(C)C [IVh, (S)-4-(2-((1R,3R)-1-acetoxy-4-methyl-3-((2S,3S)-3-methyl-N-(4-(1-methyl-1H-1,2,3-triazol-4-yl)butyl)-2-((R)-1-methylpiperidine-2-carboxamido)pentanamido)pentyl)thiazole-4-carboxamido)-5-(4-aminophenyl)-2,2-dimethylpentanoic acid] | 0.647 nM | 82 ± 2.8% | 1.86 nM | 71.6% | 1.76 nM | 82.5% | 94.6 ± 3.5% | 2.5 nM | 96.4% | 100% | 1.11 nM | < 0.015 nM | 98.5% | 99.9% | 7.49 nM | 8.8 nM | 95.4% | 99.7% | 1.52 nM | 1.53 nM | H69AR % Kill 72 h (H69AR cells; 72 h incubation): 90.2%; H69AR % Kill 144 h (H69AR cells; 144 h incubation): 97.5%; IC50 (H69AR cells; [9]): 2.93 nM; IC50 (H69AR cells; [10]): 3.3 nM
4 | C#CCCCCN(C(=O)[C@@H](NC(=O)[C@H]1CCCCN1C)[C@@H](C)CC)[C@H](C[C@@H](OC(C)=O)c1nc(C(=O)N[C@@H](Cc2ccc(F)cc2)CC(C)(C)C(=O)O)cs1)C(C)C [IVc, (4S)-4-({2-[(1R,3R)-1-(Acetyloxy)-3-[(2S,3S)—N-(hex-5-yn-1-yl)-3-methyl-2-{[(2R)-1-methylpiperidin-2-yl]formamido}pentanamido]-4-methylpentyl]-1,3-thiazol-4-yl}formamido)-5-(4-fluorophenyl)-2,2-dimethylpentanoic acid] | 0.0924 nM | 92.2% | 0.205 nM | 81.4% | 0.307 nM | 84.8% | 99.2% | 0.302 nM | 97.7% | 99.9% | < 0.015 nM | < 0.015 nM | 98.2% | 99.9% | 0.374 nM | 0.604 nM | 97.3% | 99.8% | 0.125 nM | 0.165 nM | HCT-15 + verapamil % Kill (HCT15 cells; with 5 ug/mL Verapamil): 98%; IC50 (HCT15 cells; [1]): 0.113 nM; H69AR % Kill 72 h (H69AR cells; 72 h incubation): 96.6%; H69AR % Kill 144 h (H69AR cells; 144 h incubation): 99.3%; IC50 (H69AR cells; [9]): 0.36 nM; IC50 (H69AR cells; [10]): 0.725 nM
5 | C#CCCCCN(C(=O)[C@@H](NC(=O)[C@H]1CCCCN1C)[C@@H](C)CC)[C@H](C[C@@H](OC(C)=O)c1nc(C(=O)N[C@@H](Cc2ccc(F)cc2)C[C@H](C)C(=O)O)cs1)C(C)C [IVe, (2S,4R)-4-({2-[(1R,3R)-1-(Acetyloxy)-3-[(2S,3S)—N-(hex-5-yn-1-yl)-3-methyl-2-{[(2R)-1-methylpiperidin-2-yl]formamido}pentanamido]-4-methylpentyl]-1,3-thiazol-4-yl}formamido)-5-(4-fluorophenyl)-2-methylpentanoic acid] | 0.0742 nM | 91.8% | 0.155 nM | 67.2% | 0.281 nM | 86.7% | 95.8% | 0.295 nM | 97.3% | 99.9% | < 0.015 nM | < 0.015 nM | 99.6% | 99.9% | 0.786 nM | 2.81 nM | 98.1% | 99.6% | 0.133 nM | 0.23 nM | HCT-15 + verapamil % Kill (HCT15 cells; with 5 ug/mL Verapamil): 97.6%; IC50 (HCT15 cells; [1]): 0.1 nM; H69AR % Kill 72 h (H69AR cells; 72 h incubation): 96.5%; H69AR % Kill 144 h (H69AR cells; 144 h incubation): 99%; IC50 (H69AR cells; [9]): 0.585 nM; IC50 (H69AR cells; [10]): 1.26 nM
